Here are results for 19 compounds from US10780092B2, “Fused pyrazine derivatives useful as soluble guanylate cyclase stimulators” (Merck Sharp & Dohme Corp., priority 2016, dated 2020).

As usually defined, the Ki is the equilibrium dissociation constant of an inhibitor or competing ligand from its target.

One experiment deals with sGC α1/β1 heterodimer (Homo sapiens (Human), UniProt Q02108+Q02153). The experiment can be described thus: Cell-based sGC functional assay (CASA assay), cGMP by HTRF. As to conditions: CHO-K1/sGC cells; for Emax: CHO-K1, cGMP production as percentage of maximum of compound A (set to 100%), read-out: % Activation; for EC50: inflection point of cGMP production, 4P fit, read-out: IP. In outline: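 CHO-K1 cells stably expressing human sGC α1/β1, with 0.5 mM IBMX, pre-incubated ±1 μM DETA-NO 30 min at 25° C, then compound 1 hr at 37° C (2.5% DMSO). cGMP by HTRF; activation as % of reference activator maximum, 4P fit giving inflection point and maximum […].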
Background: Time-resolved FRET reads energy transfer from a long-lived donor to a nearby acceptor.

In experiment [1] the target is human recombinant sGC enzyme (Homo sapiens (Human), UniProt Q02108+Q02153). In words: SEC competition binding assay with [3H] Compound B radioligand. As to conditions: displacement of 1.6 nM [3H] Compound B, 24 h at 37° C. An outline of the steps: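 Recombinant human sGC incubated with 1.6 nM [3H] Compound B and test compounds for 24 h at 37° C. Buffer: 50 mM triethanolamine pH 7.4, 3 mM MgCl2, 0.025% BSA, 2 mM DTT, 300 μM DETA/NO, 400 μM GTP, 1% DMSO. Bound ligand separated by gel filtration and counted by scintillation; non-specific binding with 1 μM Compound B; Ki from one-site fit.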

Regarding `CC1CCC(Cc2nc(-c3nc(N)c4c(n3)NC(=O)C4(C)c3ccc(Cl)c(O)c3)cn3ccnc23)CC1` (stereo not drawn) [Example 108-AA, 4-Amino-5-(4-chloro-3-hydroxyphenyl)-5-methyl-2-{8-[(4-methylcyclo-hexyl)methyl]imidazo-[1,2-a]pyrazin-6-yl}-5,7-dihydro-6H-pyrrolo-[2,3-d]pyrimidin-6-one], at sGC α1/β1 heterodimer, the Emax turned out to be 118% and the EC50 was 198 nM. Further, the Ki in experiment [1] is 0.924 nM.
`CC1CCC(Cc2nc(-c3nc(N)c4c(n3)NC(=O)C4(C)c3ccc(Cl)c(O)c3)cn3ccnc23)CC1` (stereo not drawn) [Example 108-AB, 4-Amino-5-(4-chloro-3-hydroxyphenyl)-5-methyl-2-{8-[(4-methylcyclohexyl)methyl]imidazo[1,2-a]pyrazin-6-yl}-5,7-dihydro-6H-pyrrolo[2,3-d]pyrimidin-6-one]: the “% Activation” value at sGC α1/β1 heterodimer (cGMP production as percentage of maximum of compound A (set to 100%)) is recorded as 127%. For the same compound, on sGC α1/β1 heterodimer, the EC50 is 210 nM. Moreover, in experiment [1], the Ki turned out to be 0.524 nM.
Regarding `CC1(c2cc(O)ccn2)C(=O)Nc2nc(-c3cn4ncnc4c(Cc4cccc(F)c4)n3)nc(N)c21` (stereo not drawn) [Example 110-B, 4-Amino-2-{8-[(3-fluorophenyl)methyl]-[1,2,4]triazolo[1,5-a]-pyrazin-6-yl}-5-(4-hydroxypyridin-2-yl)-5-methyl-5,7-dihydro-6H-pyrrolo[2,3-d]pyrimidin-6-one], on sGC α1/β1 heterodimer, the Emax came out at 159% and the EC50 was 437 nM. Besides, the Ki in experiment [1] was 1.62 nM.
As for `CC1(c2nccc(O)c2Cl)C(=O)Nc2nc(-c3cn4ccnc4c(Cc4cc(F)cc(F)c4)n3)nc(N)c21` (stereo not drawn) [Example 111-B, 4-Amino-5-(3-chloro-4-hydroxypyridin-2-yl)-2-{8-[(3,5-difluorophenyl)-methyl]imidazo[1,2-a]-pyrazin-6-yl}-5-methyl-5,7-dihydro-6H-pyrrolo-[2,3-d]pyrimidin-6-one], at sGC α1/β1 heterodimer, the Emax is 86% and the EC50 amounted to 1540 nM. In addition, the Ki in experiment [1] came to 1.74 nM.
The like results for `CC1(c2cc(Cl)c(O)c(Cl)c2)C(=O)Nc2nc(-c3cn4ncnc4c(CC4CCCCC4)n3)nc(N)c21` (stereo not drawn) [Example 112-B, 4-Amino-2-(8-(cyclo-hexylmethyl)-[1,2,4]-triazolo[1,5-a]pyrazin-6-yl)-5-(3,5-dichloro-4-hydroxyphenyl)-5-methyl-5,7-dihydro-6H-pyrrolo[2,3-d]pyrimidin-6-one] were, in that order, 112%, 16 nM and 1.78 nM.
For `CC1(c2cc(Cl)c(O)c(Cl)c2)C(=O)Nc2nc(-c3cn4ccnc4c(CC4CCCCC4)n3)nc(N)c21` (stereo not drawn) [Example 113-A, 4-Amino-2-(8-(cyclo-hexylmethyl)imidazo-[1,2-a]pyrazin-6-yl)-5-(3,5-dichloro-4-hydroxy-phenyl)-5-methyl-5,7-dihydro-6H-pyrrolo-[2,3-d]-pyrimidin-6-one], at sGC α1/β1 heterodimer, the Emax worked out at 91% and the EC50 is 125 nM. Besides, the Ki in experiment [1] came out at 2.9 nM.
The like results for `CCCCc1nc(-c2nc(N)c3c(n2)NC(=O)C3(C)c2cc(O)ccn2)cn2ncnc12` (stereo not drawn) [Example 118-B, 4-Amino-2-(8-butyl-[1,2,4]triazolo[1,5-a]-pyrazin-6-yl)-5-(4-hydroxypyridin-2-yl)-5-methyl-5,7-dihydro-6H-pyrrolo[2,3-d]-pyrimidin-6-one] were, in that order, 103%, 457 nM and 7.95 nM.
The like results for `CC(C)CCc1nc(-c2nc(N)c3c(n2)NC(=O)C3(C)c2cc(O)ccn2)cn2ncnc12` (stereo not drawn) [Example 119-B, 4-Amino-5-(4-hydroxypyridin-2-yl)-2-(8-isopentyl-[1,2,4]-triazolo[1,5-a]pyrazin-6-yl)-5-methyl-5,7-dihydro-6H-pyrrolo-[2,3-d]pyrimidin-6-one] were, in that order, 75%, 681 nM and 2.76 nM.
Regarding `CC1(c2cccc(O)c2)C(=O)Nc2nc(-c3cn4ccnc4c(Cc4cccc(F)c4)n3)nc(N)c21` (stereo not drawn) [Example 121-B, 4-Amino-2-{8-[(3-fluorophenyl)methyl]imidazo[1,2-a]pyrazin-6-yl}-5-(3-hydroxyphenyl)-5-methyl-5,7-dihydro-6H-pyrrolo[2,3-d]pyrimidin-6-one], at sGC α1/β1 heterodimer, the Emax came to 120% and the EC50 turned out to be 369 nM. The Ki in experiment [1] stood at 0.382 nM.
The like results for `Cc1cccc(Cc2nc(-c3nc(N)c4c(n3)NC(=O)C4(C)c3cccc(O)c3)cn3ccnc23)c1` (stereo not drawn) [Example 122-B, 4-Amino-5-(3-hydroxy-phenyl)-5-methyl-2-{8-[(3-methylphenyl)methyl]-imidazo[1,2-a]pyrazin-6-yl}-5,7-dihydro-6H-pyrrolo-[2,3-d]pyrimidin-6-one] were, in that order, 106%, 1820 nM and 15.6 nM.
As for `CC1(c2cccc(O)c2)C(=O)Nc2nc(-c3cn4ccnc4c(Cc4ccccc4)n3)nc(N)c21` (stereo not drawn) [Example 123-B, 4-Amino-2-(8-benzyl-imidaxol[1,2-a]pyrazin-6-yl)-5-(3-hydroxyphenyl)-5-methyl-5,7-dihydro-6H-pyrrolo[2,3-d]pyrimidin-6-one], at sGC α1/β1 heterodimer, the Emax was determined as 107% and the EC50 was found to be 768 nM. Moreover, the Ki in experiment [1] amounted to 0.372 nM.
The like results for `CC1(c2cccc(O)c2)C(=O)Nc2nc(-c3cn4ccnc4c(Cc4cccc(Cl)c4)n3)nc(N)c21` (stereo not drawn) [Example 124-B, 4-Amino-2-{8-[(3-chlorophenyl)methyl]-imidazo[1,2-a]pyrazin-6-yl}-5-(3-hydroxyphenyl)-5-methyl-5,7-dihydro-6H-pyrrolo[2,3-d]pyrimidin-6-one] were, in that order, 113%, 224 nM and 2.63 nM.
The corresponding values for `CC1(c2ccc(O)c(F)c2)C(=O)Nc2nc(-c3cn4ccnc4c(Cc4cccc(F)c4)n3)nc(N)c21` (stereo not drawn) [Example 125-B, 4-Amino-5-(3-fluoro-4-hydroxyphenyl)-2-{8-[(3-fluorophenyl)methyl]-imidazo[1,2-a]pyrazin-6-yl}-5-methyl-5,7-dihydro-6H-pyrrolo[2,3-d]-pyrimidin-6-one] are 164%, 601 nM and 0.508 nM.
For `CC1(c2ccc(O)c(F)c2)C(=O)Nc2nc(-c3cn4ccnc4c(Cc4cccc(Cl)c4)n3)nc(N)c21` (stereo not drawn) [Example 126-B, 4-Amino-2-{8-[(3-chlorophenyl)methyl]-imidazo[1,2-a]pyrazin-6-yl}-5-(3-fluoro-4-hydroxy-phenyl)-5-methyl-5,7-dihydro-6H-pyrrolo-[2,3-d]pyrimidin-6-one], at sGC α1/β1 heterodimer, the Emax was determined as 206% and the EC50 came to 391 nM. Besides, in experiment [1], the Ki was 1.1 nM.
Take `Cc1cccc(Cc2nc(-c3nc(N)c4c(n3)NC(=O)C4(C)c3ccc(O)c(F)c3)cn3ccnc23)c1` (stereo not drawn) [Example 127-B, 4-Amino-5-(3-fluoro-4-hydroxyphenyl)-5-methyl-2-{8-[(3-methylphenyl)-methyl]imidazo[1,2-a]-pyrazin-6-yl}-5,7-dihydro-6H-pyrrolo[2,3-d]-pyrimidin-6-one]: on sGC α1/β1 heterodimer, the Emax was determined as 118% and the EC50 was 9980 nM. Also, in experiment [1], the Ki worked out at 9.72 nM.
The corresponding values for `CC1(c2ccc(O)c(F)c2)C(=O)Nc2nc(-c3cn4ccnc4c(Cc4ccccc4)n3)nc(N)c21` (stereo not drawn) [Example 128-B, 4-Amino-2-(8-benzyl-imidazo[1,2-a]pyrazin-6-yl)-5-(3-fluoro-4-hydroxyphenyl)-5-methyl-5,7-dihydro-6H-pyrrolo[2,3-d]-pyrimidin-6-one] are 137%, 1200 nM and 0.646 nM.
The corresponding values for `CC1(c2ccc(F)c(O)c2)C(=O)Nc2nc(-c3cn4ccnc4c(CCC(F)(F)C(F)(F)F)n3)nc(N3CC(O)(C(F)(F)F)C3)c21` (stereo not drawn) [Example 129-B, 5-(4-Fluoro-3-hydroxyphenyl)-4-(3-hydroxy-3-(trifluoromethyl)azetidin-1-yl)-5-methyl-2-(8-(3,3,4,4,4-pentafluorobutyl)imidazo[1,2-a]pyrazin-6-yl)-5,7-dihydro-6H-pyrrolo[2,3-d]pyrimidin-6-one] are 84%, 1890 nM and 2 nM.
The corresponding values for `CC1(c2ccc(O)c(F)c2)C(=O)Nc2nc(-c3cn4ccnc4c(CCC(F)(F)C(F)(F)F)n3)nc(N3CC(O)(C(F)(F)F)C3)c21` (stereo not drawn) [Example 130-A, 5-(3-Fluoro-4-hydroxyphenyl)-4-(3-hydroxy-3-(trifluoromethyl)azetidin-1-yl)-5-methyl-2-(8-(3,3,4,4,4-pentafluorobutyl)imidazo[1,2-a]pyrazin-6-yl)-5,7-dihydro-6H-pyrrolo[2,3-d]pyrimidin-6-one] are 81%, 1920 nM and 7.15 nM.
With `CC1(c2ccc(Cl)c(O)c2)C(=O)Nc2nc(-c3cn4ccnc4c(Cc4cccc(F)c4)n3)nc(NCC(O)C(F)(F)F)c21` (stereo not drawn) [Example 131-AA, 5-(4-Chloro-3-hydroxy-phenyl)-2-{8-[(3-fluoro-phenyl)methyl]imidazo-[1,2-a]pyrazin-6-yl}-5-methyl-4-[(3,3,3-trifluoro-2-hydroxypropyl)amino]-5,7-dihydro-6H-pyrrolo-[2,3-d]pyrimidin-6-one], at sGC α1/β1 heterodimer, the Emax is 89% and the EC50 came to 427 nM. In experiment [1], the Ki stood at 0.884 nM.
